Laboratory results from a melting point compilation (Tetko et al.; mined from patent text by program, amines drawn as free bases though some values may be those of a salt).

SMILES	melting point
O=C(O)CN(CC(=O)O)C(=O)c1cc(OCCCCCCOc2ccc(-c3ccccc3)cc2)ccc1OCc1ccccc1	98 to 100 °C
Cc1c(O)cccc1C1=N[C@H]([C@H](O)CN2C[C@H]3CCCC[C@H]3C[C@H]2C(=O)NC(C)(C)C)CO1	240 °C
Cc1ccccc1C(=O)NC(NC(=O)Nc1cccnc1)C(Cl)(Cl)Cl (centres undefined)	182 to 184 °C
CCOc1cscc1C(=O)Nc1cc(Cl)ccc1SSc1ccc(Cl)cc1NC(=O)c1cscc1OCC	179 to 181 °C
O=C(O)c1cc(O)cc2cc(-c3ccc(O)cc3)oc12	260 to 262 °C
O=C(O)c1cccc(-c2ccc(-c3ccc(C(F)(F)F)cc3)o2)c1	271 to 272 °C
Cc1cccc(OCC2=NCCN2S(C)(=O)=O)c1C	142 to 143 °C
CC12CCC3c4ccc(C(=O)O)cc4CCC3C1CCC2C(=O)c1ccco1 (centres undefined)	180 to 182 °C
CSC1=Nc2ccccc2C(c2ccccc2)=NC1	167 to 168 °C
CCOC(=O)COc1cc(OC)c2c(c1)OC1(CCCC1)CC2=O	81 to 82 °C
CC(O)(c1ccccc1)C1CCNCC1 (centres undefined)	172 to 175 °C
CCOc1cc(Cc2cnc(N)nc2N)cc2c1OC(C)(C)C=C2CO	187 to 189 °C
COc1ccc(-c2ccc3c(N4CCOC[C@@H]4C)nc(N4CCOC[C@@H]4C)nc3n2)cc1CO	202 to 205 °C
NC1=NS(=O)N=C1NCCCN(Cc1cccs1)c1ccccn1 (centres undefined)	169 to 171 °C
CCCN(CCCc1c[nH]c2c(OC)cccc12)C1COc2c(F)ccc(C(N)=O)c2C1 (centres undefined)	158 to 164 °C
CCC(C)(C)c1ccc(OCCCNC(=O)c2cc([N+](=O)[O-])c3ccccc3c2O)c(C(C)(C)CC)c1	209 to 210 °C
O=C1Nc2c(ccc3c2CCCC3)SC1CCCN1CCN(c2ccc(F)cc2)CC1 (centres undefined)	145 to 147 °C
CCNc1cc(-c2c[nH]cn2)ccn1	135 to 137 °C
COc1cc2c(=O)c(C)cn3c4ccccc4c(c1)c23	165 to 168 °C
COc1ccc(-c2cc(=O)n(Cc3ccccn3)nc2-c2ccc(OC)cc2)cc1	116 to 117 °C
COc1nc(NC(=S)NS(=O)(=O)c2cccnc2)nc(OC)n1	158 to 160 °C
FC(F)(F)c1cccc(N2CCN(Cc3ccc4c(c3)NCCN4)CC2)c1	88 to 91 °C
CS(=O)c1cncc(-c2nc(=O)c3ccccc3s2)n1 (centres undefined)	228 to 230 °C
COC(=O)c1ccc(-n2c(C)nc3ccccc32)cc1	153 to 154 °C
O=C1CCCc2[nH]c3c(F)cccc3c21	222 to 224 °C

SMILES	melting point
CC(=O)Nc1ccc(S(=O)(=O)NCCc2ccccc2)cc1	98 °C
CCNC(=O)CC1CN=C(c2cc3cc(Oc4ccc(S(C)(=O)=O)nc4)ccc3[nH]2)S1 (centres undefined)	216 to 217 °C
CC(C)=CCOc1ccc2c(C)cc(=O)oc2c1C(=O)C=Cc1ccccc1	114 to 116 °C
OCCCC#Cc1cnc(-c2ccccc2)c(-c2ccccc2)n1	88 to 90 °C
Cc1ccc2c(cc(CCC(=O)O)n2S(=O)(=O)c2ccccc2)n1	88 to 92 °C
COc1ccccc1NC(=O)CCCC(C)=O	101 to 102 °C
CC(=O)NCc1nc2c(N)nc3ccccc3c2n1CC(C)C	214 to 218 °C
COc1ccc2ccccc2c1C(Nc1ccccc1C)C(=O)O (centres undefined)	188 °C
CN1CCN(C)c2nc(c3ccccc3n2)NCC2CCCC(CNc3nc1nc1ccccc31)C2	284 to 285 °C
C=CC1(CO)OC(OC2C(COCc3ccccc3)OC(OC)C(OCc3ccccc3)C2OCc2ccccc2)C(OC(C)=O)C(OC)C1O (centres undefined)	53 °C
CN1CC(=O)N2[C@H](c3ccc4c(c3)CCN4)c3[nH]c4ccccc4c3C[C@@H]2C1=O	240 °C
Nc1ccc2c(c1)COC2=O	177 to 189 °C
O=C(O)COc1cccc2c1Cc1sc(SC(c3ccccc3)c3ccccc3)nc1-2	224 to 225 °C
Cc1cc(O)c(S(=O)Cc2ccc(Cl)cc2Cl)c(=O)o1 (centres undefined)	144 to 146 °C
COC(=O)c1cc2cc(NS(=O)(=O)c3cccc(Cl)c3C)ccc2o1	139 to 140 °C
Cc1nc(Cl)c2c(c1O)COC2(C)c1ccccc1 (centres undefined)	246 °C
CC(C)C(OC(=O)C(C)(C)C)n1nnc(-c2ccccc2-c2ccc(Oc3c(C4CC4)nc4ccccc4c3C(=O)O)cc2)n1 (centres undefined)	165 to 168 °C
Cn1ccc2cc(C(=N)Nc3cccc(NC(=O)C=Cc4ccccc4)c3)ccc21	143 to 148 °C
COc1cc(F)ccc1N1CCN(CCCn2c(=O)[nH]c3c(c2=O)CCCC3)CC1	230 to 232 °C
N#Cc1ccc2c(c1)C(=O)N(C1CCC(=O)NC1=O)C2=O (centres undefined)	> 260 °C
CCOCc1nc2c(N)nc3ccccc3c2n1CCCCS(N)(=O)=O	155 to 158 °C
COc1cccc(C23CCN(C)CC2Cc2c([nH]c(C(=O)NCc4ccccc4)c2C)C3)c1 (centres undefined)	162 to 164 °C
O=C1CCc2cc(Cl)c(Cl)cc21	155 °C
COc1ccc(NC(=O)CN(C(=O)CNC(=O)Nc2cccc(C)c2)c2ccccc2)cc1	194 °C
Oc1ccc(OCc2ccccc2)cc1OCc1ccccc1	82 to 83 °C

SMILES	melting point
CC1(C)CCC2=C(C1=O)C(c1ccc(F)c(Br)c1)C1=C(COCC1=O)N2 (centres undefined)	> 260 °C
CC=COC1=C(O)C(CCC=CCCCCCCCCCCCCCC)OC1=O (centres undefined)	42 to 45 °C
C=CCC1COC(CC)(CC(=O)O)c2[nH]c3c(C)c(F)ccc3c21 (centres undefined)	138 to 140 °C
O=C(NC1CCN(Cc2ccccc2)C1)C12CC3CC(CC(C3)C1)C2 (centres undefined)	130 to 132 °C
COc1ccc(C2CCCCC2)cc1-c1csc(NC(=O)C2CCN(C(=O)c3cnccn3)CC2)n1	129 °C
COc1cccc(CNC(=O)c2nc3ccc(-c4ccccc4)cc3c(=O)[nH]2)c1	202 to 204 °C
CC(=NNC(=O)c1ccc([N+](=O)[O-])cc1)c1ccncc1	251 °C
Cc1cc(OC(F)F)ccc1C(=O)O	117 to 119 °C
CCCCc1nc(C(=O)O)c(C(=O)O)[nH]1	261 to 263 °C
Cc1cc(C)c(CO)c(-c2ccc(F)c(C)c2)c1	74 to 75 °C
O=C1C2=C(CCCC2)C(=O)N1c1cc2c(cc1F)nnn2-c1ccccc1O	274 to 275 °C
COc1cc2c(cc1F)C(=O)c1cc3ccccc3cc1C2=O	> 250 °C
COC(=O)COc1ccc(S(=O)(=O)C(Br)(Br)Br)cc1	152 to 153 °C
FC(F)(F)c1ccc(-c2ccnc(Oc3ccc4cccnc4c3)c2)cc1	156 to 158 °C
N#Cc1nn(-c2c(Cl)cc(C(F)(F)F)cc2Cl)cc1-c1ccoc1Br	111 °C
Cc1ccc(C=CC(=O)NC(C)c2ccc(NS(C)(=O)=O)c(F)c2)cc1C (centres undefined)	212 to 213 °C
CN(C)CCn1c(=O)c2ccc([N+](=O)[O-])cc2c2cnc3cc4c(cc3c21)OCO4	111 to 112 °C
Cc1[nH]c(=S)[nH]c1C(=O)c1ccccc1	268 to 269 °C
CC(C(=O)O)c1ccc2c(c1)C(=O)Cc1cc(N)ccc1S2 (centres undefined)	189 to 191 °C
CCN(CC)c1nc2ccccc2n2c(C(C)C)nnc12	93 to 95 °C
O=C(c1ccccc1)c1ccc(OCCO)cc1O	92 to 94 °C
CCCc1c(OCCSc2nc3ccc(C(=O)O)cc3[nH]2)ccc(C(C)=O)c1O	108 to 110 °C
CC1CCN(C(=O)Oc2ccc(Oc3ccc(Cl)cc3)cc2)CC1	72 to 75 °C
O=C1CCC(c2ccc(NC3=NCCO3)cc2)=NN1	332 to 333 °C
CC(=O)N1CCC(Oc2ccc([N+](=O)[O-])cc2C)CC1	139 to 141 °C

SMILES	melting point
CC1=C(C)C(=O)N(C(=O)NCCc2ccc(S(=O)(=O)NC(=O)NC3CCCCC3)cc2)C1	189 to 190 °C
CCCCn1nc(-c2ccc(F)cc2)c(-c2ccc(S(C)(=O)=O)cc2)cc1=O	111 to 113 °C
Clc1ccc(-c2n[nH]cc2Cl)cc1	158 °C
CC(=O)Nc1c(F)ccc2c1CCC(C)N2 (centres undefined)	168 to 170 °C
NC(=S)/C=C1\CCc2ccc(F)cc21	178 to 179 °C
Cc1c(C)c2c(c(C)c1O)C(=O)CC(C)(COc1ccc([N+](=O)[O-])cc1)O2 (centres undefined)	199 to 204 °C
O=C(O)C1c2ccccc2CSc2ccc(Br)cc21 (centres undefined)	185 to 186 °C
CCNC(=O)N1C2=NC(C)(C)N(C)C(=O)N2c2ccccc21	127 to 131 °C
CCCC(c1ccccc1OCc1ccc(Cl)cc1Cl)n1ccnc1 (centres undefined)	89 to 90 °C
CCC(C)(C)c1cccc(NC=O)c1Br	88 to 89 °C
N#Cc1cnc2sc(-c3ccccc3C=O)cc2c1Nc1ccc2[nH]ccc2c1	222 to 224 °C
Nc1ncnc2c1ncn2CCCN1CCC(COc2ccccc2)CC1	142 to 144 °C
CC(=O)Nc1cccc(-c2ccc3nc(-c4cccnc4N)n(-c4ccc(CNC(=O)c5ccccc5)cc4)c3n2)c1	205 to 208 °C
CNc1nc(-c2ccc(OC)c(OC)c2)cs1	120 to 123 °C
O=C(NCCO)c1cccc(-c2cccc3cc(OCc4cccc(C(F)(F)F)c4)nn23)c1	118 to 119 °C
CCCCCCCC(=O)OCC(COC(=O)CCCCCCC)OCn1cnc2c(=O)[nH]c(N)nc21	165 to 166 °C
CC1(C)C(=O)Oc2ccc3cc(C(=O)O)c(Cn4cncn4)cc3c21	262 to 265 °C
CCn1c(=O)c2[nH]c(/C=C/c3cccc(OC)c3[N+](=O)[O-])nc2n(CC)c1=O	> 285 °C
CC(=O)c1cc(Nc2cc(C)nc(N)n2)cc(C(C)=O)c1	240 to 241 °C
N#CCCc1cc(F)c2ncc(C(=O)NCc3ccc(Cl)cc3)c(O)c2c1	273 to 274 °C
O=CO[C@H]1CC[C@H](NC(=O)OCc2ccccc2)C1 (relative stereo)	45 to 48 °C
CCOC(=O)c1c2ccc(Cl)cc2c(-c2ccccc2)n1CCC(C)(C)CCBr	87 to 88 °C
C#CCOc1ccc(C(=O)C=Cc2c[nH]c3ccccc23)c(O)c1	228 to 230 °C
CCN(c1ccc(F)cc1[N+](=O)[O-])S(=O)(=O)c1ccc(C)cc1	93 to 94.5 °C
